Data on seven compounds can be found in paper PMC11239830, “Synthetic macrolides overcoming MLSBK-resistant pathogens” (Cell Discovery, 2024).

In brackets after ≈: the same amount, converted by molar mass. Where two headings read alike, the source gives them in different places.

Common to all, as to assay: MIC, broth microdilution
On the technique in general: In broth dilution the organism is exposed to a series of concentrations in liquid medium.

Assay [1] relates to S. pneumoniae. In kind it is cell-based, Streptococcus pneumoniae. As for the experimental part: (§1) MICs were determined by the microdilution method according to the Clinical and Laboratory Standards Institute guidelines. […] Finally, the 96-well plates were incubated at 37 °C for 16–20 h to observe and record the results. […] The assay for MICs was replicated at least three times.

For assay [2], the system named is H. influenzae. In kind it is cell-based, Haemophilus influenzae. As for the experimental part: as §1
Assay [3] has as its system S. aureus. In kind it is cell-based, Staphylococcus aureus. As for the experimental part: as §1
The test system of assay [4] is S. pyogenes. In kind it is cell-based, Streptococcus pyogenes. As for the experimental part:
as §1

Where [5] appears, read: Streptococcus pneumoniae, ATCC49619, S. pneumoniae ATCC49619, Ery-S, read-out: MIC.
[6] abbreviates: Streptococcus pneumoniae, S. pneumoniae 07P390, c-ermB, read-out: MIC.
[7] abbreviates: Streptococcus pneumoniae, S. pneumoniae PU09, mef, read-out: MIC.
[8] abbreviates: Haemophilus influenzae, ATCC49247, H. influenzae ATCC49247, Azi-S, read-out: MIC.
[9] abbreviates: Staphylococcus aureus, S. aureus 15B196, c-ermB, read-out: MIC.
[10] abbreviates: Staphylococcus aureus, S. aureus PU32, i-ermA, read-out: MIC.
Where [11] appears, read: Streptococcus pyogenes, S. pyogenes 12-206, c-ermTR, read-out: MIC.
Setting [12] is: Streptococcus pyogenes, S. pyogenes 01-968, i-ermTR (Table S5), read-out: MIC.
Where [13] appears, read: Streptococcus pyogenes, S. pyogenes 12-206, c-ermB (Table S5), read-out: MIC.

Consider `CC[C@H]1OC(=O)[C@H](C)[C@@H](OC(=O)NCCCOCCC#Cc2ccc3c(=O)c(C(=O)O)c[nH]c3c2)[C@H](C)[C@@H](O[C@@H]2O[C@H](C)C[C@H](N(C)C)[C@H]2O)[C@](C)(OC)C[C@@H](C)C(=O)[C@H](C)[C@H]2NC(=O)O[C@@]21C` [95i], for which the MIC in assay [1] (setting [5]) was determined as 0.12 µg/mL (≈ 0.126 µM); in assay [1] (setting [6]) it was 1 µg/mL (≈ 1.05 µM); in assay [1] (setting [7]), 0.5 µg/mL (≈ 0.523 µM); in assay [2] (setting [8]) it was 16 µg/mL (≈ 16.8 µM); in assay [3] (setting [9]), 128 µg/mL (≈ 134 µM); in assay [3] (setting [10]) it was 8 µg/mL (≈ 8.38 µM). In assay [4] (setting [11]), the MIC was 1 µg/mL (≈ 1.05 µM).
In the case of `CC[C@H]1OC(=O)[C@H](C)[C@@H](OC(=O)NCCCCCCC#Cc2ccc3c(c2)c(=O)c(C(=O)O)cn3C2CC2)[C@H](C)[C@@H](O[C@@H]2O[C@H](C)C[C@H](N(C)C)[C@H]2O)[C@](C)(O)C[C@@H](C)CN(C)[C@H](C)[C@H]2OC(=O)O[C@@]21C` [111a], the MIC in assay [1] (S. pneumoniae 07P390, c-ermB) stood at 256 µg/mL (≈ 257 µM); in assay [1] (S. pneumoniae ATCC49619, Ery-S), 0.5 µg/mL (≈ 0.502 µM); in assay [1] (S. pneumoniae PU09, mef), 2 µg/mL (≈ 2.01 µM); in assay [2] (H. influenzae ATCC49247, Azi-S) it was 16 µg/mL (≈ 16.1 µM); in assay [3] (S. aureus 15B196, c-ermB) it was 128 µg/mL (≈ 129 µM); in assay [3] (S. aureus PU32, i-ermA), 32 µg/mL (≈ 32.2 µM). In assay [4] (S. pyogenes 12-206, c-ermTR), this compound displayed an MIC of 128 µg/mL (≈ 129 µM).
Take `CC[C@H]1OC(=O)[C@H](C)[C@@H](OC(=O)NCCCCCCC#Cc2ccc3c(=O)[nH]cnc3c2)[C@H](C)[C@@H](O[C@@H]2O[C@H](C)C[C@H](N(C)C)[C@H]2O)[C@](C)(OC)C[C@@H](C)C(=O)[C@H](C)[C@H]2NC(=O)O[C@@]21C` [88k]: the MIC in assay [1] (S. pneumoniae 07P390, c-ermB) turned out to be 128 µg/mL (≈ 141 µM); in assay [1] (S. pneumoniae ATCC49619, Ery-S) it was 0.06 µg/mL (≈ 0.0659 µM); in assay [1] (S. pneumoniae PU09, mef), 0.5 µg/mL (≈ 0.549 µM); in assay [2] (H. influenzae ATCC49247, Azi-S), 64 µg/mL (≈ 70.3 µM); in assay [4] (S. pyogenes 01-968, i-ermTR (Table S5)), 1 µg/mL (≈ 1.1 µM); in assay [4] (S. pyogenes 12-206, c-ermB (Table S5)), 32 µg/mL (≈ 35.2 µM).
With `CC[C@H]1OC(=O)[C@H](C)[C@@H](OC(=O)NCCCCCCC#Cc2ccc3c(=O)c4c(O)cc(O)cc4oc3c2)[C@H](C)[C@@H](O[C@@H]2O[C@H](C)C[C@H](N(C)C)[C@H]2O)[C@](C)(OC)C[C@@H](C)C(=O)[C@H](C)[C@H]2NC(=O)O[C@@]21C` [88m], the MIC in assay [1] (setting [5]) came to 4 µg/mL (≈ 4.03 µM); in assay [1] (setting [6]), 16 µg/mL (≈ 16.1 µM); in assay [1] (setting [7]), 1 µg/mL (≈ 1.01 µM); in assay [2] (setting [8]), 16 µg/mL (≈ 16.1 µM); in assay [4] (setting [12]) it was 16 µg/mL (≈ 16.1 µM); in assay [4] (setting [13]) it was 32 µg/mL (≈ 32.3 µM). Besides, in assay [4] (setting [11]), the MIC is 32 µg/mL (≈ 32.3 µM).
Take `CCC1OC(=O)C(C)C(OC(=O)NCCOCCCC#Cc2ccc3c(=O)c(C(=O)O)cn(C4CC4)c3c2)C(C)C(OC2OC(C)CC(N(C)C)C2O)C(C)(OC)CC(C)C(=NOC)C(C)C2OC(=O)OC12C` (stereo not shown) [71c]: the MIC in assay [1] (setting [5]) was at most 0.008 µg/mL; in assay [1] (setting [6]), 0.12 µg/mL (≈ 0.117 µM); in assay [1] (setting [7]), at most 0.008 µg/mL; in assay [2] (setting [8]), 32 µg/mL (≈ 31.2 µM); in assay [3] (setting [9]) it was 256 µg/mL (≈ 250 µM); in assay [3] (setting [10]), 4 µg/mL (≈ 3.9 µM). Further, the MIC in assay [4] (setting [11]) was found to be 2 µg/mL (≈ 1.95 µM).
In the case of `CC[C@H]1OC(=O)[C@H](C)[C@@H](OC(=O)NCCCCCCC#Cc2ccc3c(=O)c(C(=O)O)cn(C4CC4)c3c2)[C@H](C)[C@@H](O[C@@H]2O[C@H](C)C[C@H](N(C)C)[C@H]2O)[C@](C)(OC)C[C@@H](C)C(=O)[C@H](C)[C@H]2NC(=O)O[C@@]21C` [88c], the MIC in assay [1] (setting [5]) was at most 0.008 µg/mL; in assay [1] (setting [7]), at most 0.008 µg/mL; in assay [3] (S. aureus 15B196, c-ermB) it was 4 µg/mL (≈ 4.03 µM); in assay [3] (S. aureus PU32, i-ermA), 1 µg/mL (≈ 1.01 µM); in assay [3] (setting [9]), 8 µg/mL (≈ 8.05 µM); in assay [3] (setting [10]), 2 µg/mL (≈ 2.01 µM). The MIC in assay [4] (S. pyogenes 12-206, c-ermTR) was determined as 1 µg/mL (≈ 1.01 µM); in assay [4] (setting [11]), 0.5 µg/mL (≈ 0.503 µM).
For the compound `CC[C@H]1OC(=O)[C@H](C)[C@@H](OC(=O)NCCCCCCC#Cc2ccc3c(=O)n(CC(=O)O)cnc3c2)[C@H](C)[C@@H](O[C@@H]2O[C@H](C)C[C@H](N(C)C)[C@H]2O)[C@](C)(OC)C[C@@H](C)C(=O)[C@H](C)[C@H]2NC(=O)O[C@@]21C` [88l], the MIC in assay [1] (setting [5]) worked out at 0.25 µg/mL (≈ 0.258 µM); in assay [1] (setting [6]) it was 256 µg/mL (≈ 264 µM); in assay [1] (setting [7]), 0.25 µg/mL (≈ 0.258 µM); in assay [2] (setting [8]), 256 µg/mL (≈ 264 µM); in assay [4] (setting [12]) it was 8 µg/mL (≈ 8.26 µM); in assay [4] (setting [13]), 256 µg/mL (≈ 264 µM). In addition, the MIC in assay [4] (setting [11]) was 256 µg/mL (≈ 264 µM).
